What was measured:
[1] = biological target: T1, Adrenergic receptor alpha-1 (Rattus norvegicus, UniProt P15823+P23944+P43140); experiment: Binding affinity towards alpha-1 adrenergic receptor from rat brain homogenate preparation by displacement of [3H]prazosin; type: tissue-based
T1 sequence (P15823 whole entry): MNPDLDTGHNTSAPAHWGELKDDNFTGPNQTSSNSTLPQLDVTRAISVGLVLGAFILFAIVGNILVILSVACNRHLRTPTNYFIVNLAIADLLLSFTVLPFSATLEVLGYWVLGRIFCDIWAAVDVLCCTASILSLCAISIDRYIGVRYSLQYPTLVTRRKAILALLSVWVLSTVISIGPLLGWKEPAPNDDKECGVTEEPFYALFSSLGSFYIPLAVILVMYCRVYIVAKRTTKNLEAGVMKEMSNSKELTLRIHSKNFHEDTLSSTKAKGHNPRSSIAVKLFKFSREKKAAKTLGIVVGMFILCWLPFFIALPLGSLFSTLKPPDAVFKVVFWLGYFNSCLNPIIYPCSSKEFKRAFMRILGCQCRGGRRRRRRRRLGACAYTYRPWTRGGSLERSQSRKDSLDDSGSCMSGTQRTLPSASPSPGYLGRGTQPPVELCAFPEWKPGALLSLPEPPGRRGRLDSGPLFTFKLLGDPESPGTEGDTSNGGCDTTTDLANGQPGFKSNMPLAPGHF
T1 sequence (P23944 whole entry): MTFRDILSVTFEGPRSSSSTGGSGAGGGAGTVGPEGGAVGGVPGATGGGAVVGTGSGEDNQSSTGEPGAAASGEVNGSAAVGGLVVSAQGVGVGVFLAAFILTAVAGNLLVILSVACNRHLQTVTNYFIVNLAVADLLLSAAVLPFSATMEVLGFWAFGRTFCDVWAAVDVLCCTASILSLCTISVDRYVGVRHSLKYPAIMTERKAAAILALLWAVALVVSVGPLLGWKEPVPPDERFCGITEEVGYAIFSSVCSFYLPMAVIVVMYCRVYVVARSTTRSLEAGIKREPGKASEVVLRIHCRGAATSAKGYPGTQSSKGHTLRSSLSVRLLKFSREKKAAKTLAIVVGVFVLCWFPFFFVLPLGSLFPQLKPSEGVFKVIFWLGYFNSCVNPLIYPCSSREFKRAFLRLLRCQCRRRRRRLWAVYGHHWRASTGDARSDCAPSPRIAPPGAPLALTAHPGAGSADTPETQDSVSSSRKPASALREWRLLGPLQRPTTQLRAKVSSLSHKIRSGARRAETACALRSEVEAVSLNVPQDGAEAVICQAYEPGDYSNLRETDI
T1 sequence (P43140 whole entry): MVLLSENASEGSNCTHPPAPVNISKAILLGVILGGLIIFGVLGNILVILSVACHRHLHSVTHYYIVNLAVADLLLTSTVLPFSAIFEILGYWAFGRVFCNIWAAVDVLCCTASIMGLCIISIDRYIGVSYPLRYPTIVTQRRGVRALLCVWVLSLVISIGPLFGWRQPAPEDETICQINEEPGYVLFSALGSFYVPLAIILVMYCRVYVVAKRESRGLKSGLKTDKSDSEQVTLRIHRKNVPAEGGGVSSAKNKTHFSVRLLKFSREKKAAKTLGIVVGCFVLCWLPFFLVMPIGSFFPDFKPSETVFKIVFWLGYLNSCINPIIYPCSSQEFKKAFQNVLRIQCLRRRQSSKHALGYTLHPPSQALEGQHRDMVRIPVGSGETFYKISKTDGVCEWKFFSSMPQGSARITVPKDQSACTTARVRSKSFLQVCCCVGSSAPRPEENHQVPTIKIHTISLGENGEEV

[2] = biological target: T2, Adrenergic receptor alpha-2 (Rattus norvegicus) (UniProt P22086+P19328+P22909); experiment: Binding affinity towards alpha-2 adrenergic receptor from rat brain homogenate preparation by displacement of [3H]clonidine at 10e-6 M concentration; type: tissue-based
Rattus norvegicus [3] = experiment: Percent reduction in Spontaneously hypertensive rat blood pressure after 1 h of 3 mg/kg, po administration; type: functional
Rattus norvegicus [4] = experiment: Percent reduction in Spontaneously hypertensive rat blood pressure after 4.5 hr of 3 mg/kg, po administration; type: functional
[5] = biological target: T2, Adrenergic receptor alpha-2 (Rattus norvegicus); experiment: Binding affinity towards alpha-2 adrenergic receptor from rat brain homogenate preparation by displacement of [3H]clonidine at 10e-6 M; type: tissue-based
[6] = biological target: T3, Adrenergic receptor alpha-2 (Rattus norvegicus, UniProt P22086+P19328+P22909); experiment: Binding affinity towards alpha-2 adrenergic receptor from rat brain homogenate preparation by displacement of [3H]clonidine; type: tissue-based
T3 sequence (P22086 whole entry): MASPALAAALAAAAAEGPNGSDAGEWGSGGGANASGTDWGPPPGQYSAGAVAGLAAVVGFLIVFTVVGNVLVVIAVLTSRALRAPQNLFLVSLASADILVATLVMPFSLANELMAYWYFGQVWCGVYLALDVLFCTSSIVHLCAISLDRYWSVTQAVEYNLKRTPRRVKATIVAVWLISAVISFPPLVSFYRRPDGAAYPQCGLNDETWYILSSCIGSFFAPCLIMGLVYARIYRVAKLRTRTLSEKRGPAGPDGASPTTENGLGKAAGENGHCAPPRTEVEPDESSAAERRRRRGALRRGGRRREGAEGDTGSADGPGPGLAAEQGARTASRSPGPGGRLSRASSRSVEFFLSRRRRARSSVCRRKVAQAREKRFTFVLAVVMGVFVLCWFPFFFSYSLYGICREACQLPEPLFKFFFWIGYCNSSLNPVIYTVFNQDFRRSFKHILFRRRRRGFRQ
T3 sequence (P19328 whole entry): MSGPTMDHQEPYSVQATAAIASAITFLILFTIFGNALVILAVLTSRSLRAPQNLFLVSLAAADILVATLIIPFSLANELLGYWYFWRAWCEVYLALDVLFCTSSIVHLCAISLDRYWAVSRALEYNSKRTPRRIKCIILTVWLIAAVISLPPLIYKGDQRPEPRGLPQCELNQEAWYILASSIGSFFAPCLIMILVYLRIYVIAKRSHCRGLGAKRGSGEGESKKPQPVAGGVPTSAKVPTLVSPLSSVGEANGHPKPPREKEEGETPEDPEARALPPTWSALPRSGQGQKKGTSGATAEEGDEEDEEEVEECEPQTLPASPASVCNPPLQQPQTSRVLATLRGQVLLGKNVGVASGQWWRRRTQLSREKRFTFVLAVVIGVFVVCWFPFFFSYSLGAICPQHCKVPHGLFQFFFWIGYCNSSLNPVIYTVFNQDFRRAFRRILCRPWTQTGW
T3 sequence (P22909 whole entry): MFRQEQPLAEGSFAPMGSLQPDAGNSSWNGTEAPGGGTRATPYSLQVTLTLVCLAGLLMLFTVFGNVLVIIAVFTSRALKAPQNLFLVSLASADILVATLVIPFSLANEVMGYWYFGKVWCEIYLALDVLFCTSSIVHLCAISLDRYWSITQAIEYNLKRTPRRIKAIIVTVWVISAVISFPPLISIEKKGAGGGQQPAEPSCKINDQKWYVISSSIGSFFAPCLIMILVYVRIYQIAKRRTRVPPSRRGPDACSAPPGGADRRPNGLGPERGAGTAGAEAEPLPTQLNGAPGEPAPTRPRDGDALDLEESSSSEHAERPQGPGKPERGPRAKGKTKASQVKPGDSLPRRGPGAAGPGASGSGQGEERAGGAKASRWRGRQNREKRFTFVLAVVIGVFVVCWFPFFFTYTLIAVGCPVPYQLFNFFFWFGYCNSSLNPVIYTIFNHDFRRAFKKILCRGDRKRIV

[7] = biological target: T2, Adrenergic receptor alpha-2 (Rattus norvegicus); experiment: Binding affinity towards alpha-2 adrenergic receptor from rat brain homogenate preparation by displacement of [3H]clonidine at 10E-6 M; type: tissue-based
Rattus norvegicus [8] = experiment: Percent reduction in Spontaneously hypertensive rat blood pressure after 1 hr of 3 mg/kg, po administration; type: functional

Structure (SMILES)	Ki [1] [pM]	Displacement [2] [%]	Reduction (Rattus norvegicus [3]) [%]	Reduction (Rattus norvegicus [4]) [%]	Displacement [5] [%]	Ki [6] [pM]	Displacement [7] [%]	Reduction (Rattus norvegicus [8]) [%]
CCCNC(=O)N1CCN(c2cc(N)c3cc(OC)c(OC)cc3n2)CC1	440	< 50	3	8				
COc1cc2nc(N3CCN(C(=O)c4ccccc4)CC3)cc(N)c2cc1OC	490		19	19	< 50			
COc1cc2nc(N3CCN(C(C)=O)CC3)cc(N)c2cc1OC	1170		4	7				
COc1cc2nc(N3CCN(C(=O)Nc4ccccc4)CC3)cc(N)c2cc1OC	340		20	25		66000		
COc1cc2nc(N3CCCCC3)cc(N)c2cc1OC	2930	< 50	6	6				
CCOc1ccnc(N2CCN(c3cc(N)c4cc(OC)c(OC)cc4n3)CC2)n1	420	< 50	19	22				
COc1cc2nc(N(C)C)cc(N)c2cc1OC			12	11			< 50	
COc1cc2nc(N3CCN(c4nccc(C)n4)CC3)cc(N)c2cc1OC	630	< 50	10	8				
COc1cc2nc(N3CCN(C(=O)c4ccco4)CC3)nc(N)c2cc1OC [PRAZOSIN]			24	15				
COc1cc2nc(N3CCN(c4ccccc4)CC3)cc(N)c2cc1OC	1720		8	24		51600		
COc1cc2nc(N3CCN(C(=O)c4ccco4)CC3)cc(N)c2cc1OC	140	< 50		25				32
COc1cc2nc(N3CCN(c4nccc(N(C)C)n4)CC3)cc(N)c2cc1OC	460		16	19		55300		
C=CCNC(=O)N1CCN(c2cc(N)c3cc(OC)c(OC)cc3n2)CC1	290	< 50	15	17				
COc1cc2nc(N3CCN(C(=O)C4COc5ccccc5O4)CC3)cc(N)c2cc1OC (stereo not drawn)	810	< 50	6	13				
COc1cc2nc(N3CCNCC3)cc(N)c2cc1OC	30060	< 50	11	14				
COc1cc2nc(N3CCN(Cc4ccccc4)CC3)cc(N)c2cc1OC			8	10				

From ChEMBL document CHEMBL1124293, “2,4-Diamino-6,7-dimethoxyquinoline derivatives as alpha 1-adrenoceptor antagonists and antihypertensive agents” (J Med Chem, 1988)
